Here are results for 1 compound from patent publication US20190117586A1, “METHODS OF PREVENTING OR TREATING PARKINSON'S DISEASE BY THE FARNESYLATION OF PARIS” (The Johns Hopkins University, priority 2016, published 2019).

For data set [1], the system named is AAV-PARIS injected C57BL/6J mice. It is filed as in vivo.
The test system of a further data set is cPK-KO mice. The experiment in a line: Conditional adult parkin knockout (cPK-KO) mice. It is filed as in vivo. The source says: In this setting, the level of farnesylated PARIS was monitored in the SN of cPK-KO mice fed with either chow diet or farnesol diet.
To generate Cre-flox conditional model of parkin knock out, an adeno-associated vector expressing GFP fused Cre recombinase (AAV-GFPCre) was stereotaxically introduced into the SN of exon 7 floxed parkin mice (parkin^Flox/Flox).

Data set [2] has as its system PGC-1α. The data set is described as follows: Parkin knockdown (lentiviral shRNA-parkin) SH-SY5Y cells. It is filed as cell-based. The procedure: Knockdown of parkin leads to a 2.7 fold increase in the level of PARIS and a 65% decrease of PGC-1α (FIGS. 2D and 2E). […] The mRNA levels of PGC-1α and its target genes were assessed after knocking down parkin by real-time qRT-PCR.

Data set [3] concerns PGC-1α and PGC-1α's target genes. The experiment in a line: mRNA of PGC-1α and target genes in STR, HIP and SN of farnesol-fed mice. It is filed as in vivo. The procedure:
Farnesol is a natural organic compound in both plants and animals. Phosphate derivatives of farnesol are the building blocks of cholesterol in mammalian cells. […] The level of PGC-1α was measured from different brain regions in farnesol-fed mice. PGC-1α levels increase 2.7-fold in the olfactory bulb (OB), 1.6-fold in hippocampus (HIP), and 1.7-fold in substantia nigra (SN) as compared to that of mice on normal mouse chow (FIGS. 2H and 2I). […] In addition, mRNA levels of PGC-1α and a variety of PGC-1α's target genes in the STR, HIP, and SN of farnesol-fed mice were measured.

A further data set deals with α-syn PFF-injected mice. The experiment in a line: α-syn PFF-injected mice (WT and C638S KI). To be noted: farnesol diet from 2 weeks post-injection; WT versus C638S KI. The format is in vivo. The source says: Specifically, FIG. 16A illustrates generating Zfp746^C638S/C638S knockin mice (C638S KI) by CRISPR/Cas9. […] WB, western blot analysis. (FIG. 16B). […] (FIG. 16C). […] Stereological TH, Nissl-positive neuronal counting was indicated at the bottom, n=4 mice per group. (FIG. 16 D). […] WT, n=8, 9, 10, and 9 mice for each group; C638S KI, n=8, 10, 9, and 9 mice for each group. (FIG. 16 D). […] WT, n=8, 9, 10, and 9 mice for each group; C638S KI, n=9, 10, 9, and 9 mice for each group. (FIG. 16F). […] Data=mean±SEM. (FIG. 16G).
Statistical significance was determined by two-way ANOVA test with Tukey post-hoc analysis. Differences were considered significant when p<0.05. *p<0.05, **p<0.01, and ***p<0.001.

Data set [4] is described as follows: Farnesol concentration in brain and plasma of farnesol diet fed mice by mass spectrometry. To be noted: 0.5% w/w trans-farnesol in AIN-76A diet; for concentration at 7 days: mouse, oral, 0.5 % w/w in diet. It is filed as in vivo.
Another data set deals with T1, PPARα (Homo sapiens, UniProt Q07869).
T1 sequence (Q07869 1-468): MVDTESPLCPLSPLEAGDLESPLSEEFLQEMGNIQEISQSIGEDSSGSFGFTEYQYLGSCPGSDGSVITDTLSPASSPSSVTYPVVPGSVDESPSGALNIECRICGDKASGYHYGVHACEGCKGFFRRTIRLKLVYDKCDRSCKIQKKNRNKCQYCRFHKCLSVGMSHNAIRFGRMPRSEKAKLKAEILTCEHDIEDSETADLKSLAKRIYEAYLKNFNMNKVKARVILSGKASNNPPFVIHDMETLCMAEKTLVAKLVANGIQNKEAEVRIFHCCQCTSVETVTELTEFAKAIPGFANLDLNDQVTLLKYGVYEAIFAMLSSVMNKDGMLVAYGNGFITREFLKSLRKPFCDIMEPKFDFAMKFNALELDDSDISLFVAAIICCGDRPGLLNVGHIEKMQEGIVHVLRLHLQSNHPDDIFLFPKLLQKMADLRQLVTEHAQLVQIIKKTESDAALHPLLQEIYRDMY
The conditions noted are these: cited from earlier work.

For data set [5] the following is noted: dietary farnesol in rats; cited from earlier work.
The test system of data set [6] is PGC-1α. The data set is described as follows: PGC-1α levels in SH-SY5Y cells by immunoblot. The format is cell-based. To be noted: SH-SY5Y cells. The procedure: The 9 compounds that activate the PGC-1α promoter in the presence of PARIS were evaluated to determine which compounds induce PGC-1α levels in SH-SY5Y cells (FIGS. 2A and 2B). […] The mRNA level of PGC-1α target genes including copper/zinc superoxide dismutase (SOD1), manganese SOD (SOD2), glutathione peroxidase (GPx1), catalase (CAT), nuclear respiratory factor-1 (NRF-1), mitochondrial transcription factor A (TFAM), mitochondrial uncoupling proteins (UCP2 and UCP3), and the oxidative phosphorylation regulators, ATP5b, cytochrome C (CytC) and cytochrome C oxidase (COX II and IV) were determined by real-time quantitative RT-PCR (qRT-PCR) (FIG. 2C).
Geraniol or geranylgeraniol have no effect on PGC-1α levels (FIG. 3H).

Setting [7] is: farnesol diet from one week prior to injection.
Setting [8] is: farnesol fed versus normal chow fed mice.

As to `CC(C)=CCC/C(C)=C/CC/C(C)=C/CO` [farnesol, (2E,6E)-3,7,11-trimethyldodeca-2,6,10-trien-1-ol], the “levels of PARIS WT or PARIS C631S” value in [1] (AAV injected mice, farnesol diet) was “did not affect”. The amphetamine-induced rotation behavior result in data set [1] (AAV-PARIS WT, farnesol diet) is reported as “restoration of amphetamine-induced rotation behavior”. For the same compound, in [1] (setting [7]), the “dopamine neuronal survival, AAV-PARIS C631S mice” value is recorded as “no effect” and the “loss of dopamine neurons, AAV-PARIS WT mice” value is “completely prevents the loss of dopamine neurons”. In addition, the “farnesylated PARIS in AAV-PARIS WT compared to AAV-PARIS C631S injected mice” value in [1] (farnesol fed mice, two weeks post-AAV injection) was “robustly observed”. In addition, in the data set with cPK-KO mice (SN of cPK-KO mice, farnesol diet), the “farnesylation of PARIS” value is recorded as “enhanced farnesylation of PARIS”. Moreover, the “decrements of PGC-1α and NRF-1 levels in the SN” value with cPK-KO mice (cPK-KO mice, farnesol diet) is “prevents the decrements of PGC-1α and NRF-1 levels”. For the same compound, in the data set on cPK-KO mice (cPK-KO, farnesol diet from 7 days prior to viral injection), the “loss of dopamine neurons in the SN” value is “completely and significantly prevents the loss of dopamine neurons”. The “PGC-1α and NRF-1 levels in the SN of control mice” value in the data set on cPK-KO mice (control mice, farnesol diet) was “increases PGC-1α and NRF-1 levels”. In addition, the “mRNA of PGC-1α, NRF-1, SOD2, TFAM, UCP2, CytC, COX II and COX 1 in the SN” value in the data set on cPK-KO mice (farnesol-fed versus normal chow-fed mice) was “upregulation”. In the data set with PGC-1α [2], the “level of PGC-1α” value was “restores the level of PGC-1α”; the “level of parkin and PARIS” value is “without affecting the level of parkin and PARIS”. Moreover, in the data set on PGC-1α [2] (qRT-PCR), the “mRNA levels of SOD2, TFAM, ATP5B, CYTC, and COX II” value was “significantly increased”; the “reduction of mRNA of PGC-1α and NRF-1” value is reported as “rescued”. For the same compound, the “mRNA levels of SOD2, TFAM, UCP2, and CYTC” value in [3] (farnesol fed mice, SN, HIP, STR) is “exclusively increased in SN, but not in the HIP and STR”. Further, in data set [3] (setting [8]), the “mRNA level of PGC-1α in HIP, SN and STR” value is “significantly upregulated in the HIP and SN, but not in the STR”; the “mRNA levels of NRF-1, COX II, and COX IV” value is “upregulated in both HIP and SN”. The “neuroprotective effect in α-syn PFF-injected mice” value with α-syn PFF-injected mice is “requires PARIS farnesylation in vivo”. Further, in data set [4] (7 days), the “increase of farnesol level in the brain versus control diet fed mice” value is listed as 37%. This compound showed a concentration at 7 days in data set [4] (brain) of 155 ng/g. In addition, in data set [4] (plasma, non-detectable on control diet), the concentration at 7 days was found to be 113 ng/mL. Further, the “activation of PPARα in vitro” value at PPARα is on record as “capable of activating”. Also, in [5], the “level of serum triglycerides, cholesterol” value is “lowers”. Besides, the “PGC-1α level by immunoblot analysis” value with PGC-1α [6] was “significantly increased”.
